Measurements as given in patent US7547729B2, “1,3-diphenylprop-2-en-1-one derivative compounds, preparation method thereof and uses of same” (Genfit, priority 2004, dated 2009).

Tests used:
PPARδ = biological target: T1, PPARδ (Homo sapiens, UniProt Q03181); test: PPARδ/Gal4 transactivation system in COS-7 cells; format: cell-based; conditions: 24 hours
T1 construct: expressed in transfected cells; host or cells: COS-7 cells
T1 sequence (Q03181 211-439 limits assumed): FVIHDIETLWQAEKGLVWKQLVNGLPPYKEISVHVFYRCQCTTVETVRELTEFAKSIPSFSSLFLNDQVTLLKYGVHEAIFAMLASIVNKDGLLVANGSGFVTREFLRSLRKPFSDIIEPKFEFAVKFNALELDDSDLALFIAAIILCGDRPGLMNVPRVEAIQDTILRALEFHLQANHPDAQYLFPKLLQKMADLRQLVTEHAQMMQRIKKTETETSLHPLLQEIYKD
Procedure: (§1) COS-7 cells were incubated with different concentrations of the inventive compounds for 24 hours. The results are expressed as the induction factor (ratio of luminescent signal obtained with the compound and that observed without the compound) after the different treatments.
(§2) PPAR activation was tested in vitro in RK13 epitheloid or COS-7 cell lines by measuring the transcriptional activity of chimeras composed of the DNA binding domain of the yeast gal4 transcription factor and the ligand binding domain of the different PPARs. These latter results were then confirmed in cell lines according to the following protocols:
(§3) RK13 cells were from ECACC (Porton Down, UK), COS-7 cells were from the ATCC (American Type Culture Collection) and were grown in DMEM medium supplemented with 10% (VN) fetal calf serum, 100 U/ml penicillin (Gibco, Paisley, UK) and 2 mM L-glutamine (Gibco, Paisley, UK). The culture medium was changed every two days. Cells were kept at 37° C. in a humidified 95% air/5% CO2 atmosphere.
(§4) The plasmids pG5TkpGL3, pRL-CMV, pGal4-hPPARα, pGal4-hPPARγ, pGal4-hPPARδ and pGal4-φ have been described by Raspe, Madsen et al. (1999). The pGal4-mPPARα, pGal4-hPPARγ and pGal4-hPPARδ constructs were obtained by cloning into the pGal4-φ vector of PCR-amplified DNA fragments corresponding to the DEF domains of the human PPARα, PPARγ and PPARδ nuclear receptors.
(§5) RK13 cells were seeded in 24-well culture dishes at 5×10^4 cells/well, COS-7 cells in 96-well culture dishes at 5×10^4 cells/well and transfected for 2 hours with the reporter plasmid pG5TkpGL3 (50 ng/well), the expression vectors pGal4-φ, pGal4-mPPARα, pGal4-hPPARα, pGal4-hPPARγ, pGal4-hPPARδ (100 ng/well) and the transfection efficiency control vector pRL-CMV (1 ng/well) according to the previously described protocol (Raspe, Madsen et al. 1999), then incubated for 36 hours with the test compounds. At the end of the experiment, the cells were lysed (Gibco, Paisley, UK) and luciferase activity was determined with a Dual-Luciferase™ Reporter Assay System kit (Promega, Madison, Wis., USA) for RK13 cells and Steady Glow Luciferase (Promega) for COS-7 cells according to the supplier's instructions as previously described. The protein content of the cell extracts was then measured with the Bio-Rad Protein Assay (Bio-Rad, Munich, Germany) as directed by the supplier.

PPARγ = biological target: T2, PPARγ (Homo sapiens, UniProt P37231); test: PPARγ/Gal4 transactivation system in COS-7 cells; format: cell-based; conditions: 24 hours
T2 construct: expressed in transfected cells; host or cells: COS-7 cells
T2 sequence (P37231 238-503 limits assumed): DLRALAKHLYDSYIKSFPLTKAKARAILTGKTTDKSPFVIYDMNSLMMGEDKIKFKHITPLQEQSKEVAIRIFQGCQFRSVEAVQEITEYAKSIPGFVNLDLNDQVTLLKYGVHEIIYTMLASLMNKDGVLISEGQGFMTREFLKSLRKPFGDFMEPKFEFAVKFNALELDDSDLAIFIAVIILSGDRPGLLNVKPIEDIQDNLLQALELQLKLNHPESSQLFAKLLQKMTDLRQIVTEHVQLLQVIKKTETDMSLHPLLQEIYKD
Procedure: as §1, §2, §3, §4, §5

PPARα = biological target: T3, PPARα (Homo sapiens, UniProt Q07869); test: PPARα/Gal4 transactivation system in COS-7 cells; format: cell-based; conditions: 24 hours
T3 construct: expressed in transfected cells; host or cells: COS-7 cells
T3 sequence (Q07869 239-466 limits assumed): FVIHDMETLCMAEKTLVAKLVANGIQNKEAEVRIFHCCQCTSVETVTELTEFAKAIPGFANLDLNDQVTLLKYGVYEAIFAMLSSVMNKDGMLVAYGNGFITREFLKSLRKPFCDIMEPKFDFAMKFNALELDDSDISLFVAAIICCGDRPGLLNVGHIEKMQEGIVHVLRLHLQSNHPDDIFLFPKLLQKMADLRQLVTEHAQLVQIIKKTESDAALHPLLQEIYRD
Procedure: as §1, §2, §3, §4, §5

naive CD4+ T cells = test: Mixed Lymphocyte Reaction (MLR), BrdU incorporation; format: cell-based
Procedure: FIG. 23 illustrates a Mixed Lymphocyte Reaction (MLR) carried out in the presence of increasing amounts of dendritic cells treated or not with compound 31 and incubated with naive CD4+ T cells for seven days. T cell proliferation was determined by BrdU (bromodeoxyuridine) incorporation.
For this experiment, increasing amounts of mature dendritic cells (treated or not with the compound) were incubated with a fixed amount of naive CD4+ T cells from another donor. After a 5-day incubation, BrdU (bromodeoxyuridine) was added for 24 hours and the incorporation thereof in T cells was determined by ELISA with anti-BrdU antibodies coupled to chemiluminescent tags.

LDL = test: Protection against LDL oxidation by copper (conjugated diene formation); format: biochemical; conditions: 10^−4M
Procedure: Unless otherwise indicated, the reagents were from Sigma (St Quentin, France). LDL were prepared according to the method described by Lebeau et al. (Lebeau, Furman et al. 2000).
The solutions of test compounds were prepared at 10^−2 M concentration in bicarbonate buffer (pH 9) and diluted in PBS to obtain final concentrations ranging from 0.1 to 100 μM
Prior to oxidation, EDTA was removed from the LDL preparation by dialysis. Oxidation then took place at 30° C. by adding 100 μl of 16.6 μM CuSO4 solution to 160 μL of LDL (125 μg protein/ml) and 20 μl of a test compound solution. The formation of dienes, the species under observation, was followed by measuring optical density at 232 nm in the samples treated with the compounds in the presence or absence of copper. Optical density at 232 nm was measured every 10 minutes for 8 hours in a thermostated spectrophotometer (Tecan Ultra 380). The analyses were performed in triplicate. The compounds were considered to have antioxidant activity when they induced a longer lag phase and reduced the rate of oxidation and the amount of dienes formed in comparison with the control sample.

[1] = system: Apo E2/E2 transgenic mice; test: Effects on triglyceride and cholesterol metabolism in Apo E2/E2 transgenic mice; format: in vivo; conditions: gavage, 50 mg/kg/day, seven days
Procedure: FIGS. 19a, 19b, 19c, 19d, 20a, 20b, 20c and 20d illustrate the effects of treatment with compound 2 (Cpd2), compound 13 (Cpd13), compound 33 (Cpd33) and compound 39 (Cpd39) on triglyceride and cholesterol metabolism in Apo E2/E2 transgenic mice treated by gavage with the compound at a dose of 50 mg/kg/day, for seven days.
Apo E2/E2 transgenic mice were housed in a 12-hour light/dark cycle at a constant temperature of 20±3° C. After a 1-week acclimatization period, the mice were weighed and divided into groups of 6 animals selected such that the distribution of body weight was uniform. The test compounds were suspended in carboxymethylcellulose and administered by gastric lavage at the indicated doses, once a day for 7 days. Animals had access to food and water ad libitum. At the end of the experiments, animals were weighed and sacrificed under anesthesia. Blood was collected on EDTA. Plasma was isolated by centrifugation at 3000 rpm for 20 minutes. Liver samples were removed and stored frozen in liquid nitrogen for later analysis.
Lipid concentrations in plasma (total cholesterol and free cholesterol, triglycerides and phospholipids) were determined by a colorimetric assay (Boehringer, Mannheim, Germany) according to the supplier's instructions. Plasma concentrations of apolipoproteins AI, AII and CIII were determined as previously described (Raspe et al. 1999, Asset G et al., Lipids, 1999).

[2] = system: monocyte-derived dendritic cells; test: Differentiation of monocytes to dendritic cells (flow cytometry of surface markers); format: cell-based
Procedure: Compound 39 (10^−6 M) was added at D0 of differentiation of monocytes to dendritic cells. After six days of differentiation (in the presence of cytokines GM-CSF and IL-4), the dendritic cells were analyzed by flow cytometry.
For these experiments, blood samples from volunteer donors (Etablissement Francais du Sang) and monocytes were isolated by a standard protocol using anti-CD14-conjugated magnetic beads (Miltenyi Biotec). Monocytes isolated in this manner were then induced to differentiate by incubation for 6 days in culture medium containing a mixture of cytokines GM-CSF and IL-4 (20 ng/ml for each cytokine).
Compound 39 was added at t=0 and acquisition of the dendritic cell phenotype was followed by expression of the cell surface marker CD1a.

[3] = compound added at t=0, six days differentiation, data not shown

SMILES	Induction factor (PPARγ; 0.001 μM)	Induction factor (PPARγ; 0.003 μM)	Induction factor (PPARγ; 0.01 μM)	Induction factor (PPARγ; 0.03 μM)	Induction factor (PPARγ; 0.1 μM)	Induction factor (PPARγ; 0.3 μM)	Induction factor (PPARγ; 1 μM)	Induction factor (PPARγ; 3 μM)	Induction factor (PPARα; 0.001 μM)	Induction factor (PPARα; 0.003 μM)	Induction factor (PPARα; 0.01 μM)	Induction factor (PPARα; 0.03 μM)	Induction factor (PPARα; 0.1 μM)	Induction factor (PPARα; 0.3 μM)	Induction factor (PPARα; 1 μM)	Induction factor (PPARα; 3 μM)	further results
Cc1cc(/C=C/C(=O)c2c(C)c(C)c(C)c(C)c2C)cc(C)c1OC(C)(C)C(=O)O [compound 31, 1-(2,3,4,5,6-Pentamethylphenyl)-3-(4-carboxydimethylmethyloxy-3,5-dimethylphenyl)prop-2-en-1-one]	1.44	2.19	3.06	4.87	5.99	6.96	7.05	7.79	1.10	1.09	1.23	1.23	1.23	1.73	1.88	3.69	Induction factor (PPARδ; 0.001 μM): 1.00; Induction factor (PPARδ; 0.003 μM): 1.05; Induction factor (PPARδ; 0.01 μM): 1.09; Induction factor (PPARδ; 0.03 μM): 1.16; Induction factor (PPARδ; 0.1 μM): 1.35; Induction factor (PPARδ; 0.3 μM): 2.67; Induction factor (PPARδ; 1 μM): 4.12; Induction factor (PPARδ; 3 μM): 10.82; Induction factor (PPARδ; 10 μM): 11.70; Induction factor (PPARα; 10 μM): 6.03; capacity of treated dendritic cells to induce proliferation of naive CD4+ T cells (naive CD4+ T cells): lower capacity; kinetics of LDL oxidation (lag phase) (LDL; FIG. 5a, no control value printed): 124.5 min; LDL oxidation rate (LDL; FIG. 5b, absence of compounds 2): 1.4 nmol/min/mg; total amount of dienes formed (LDL; FIG. 5c, absence of compounds 386): 352 nmol/mg
CCCCCCSc1c(C)cc(C(=O)/C=C/c2cc(C)c(OC(C)(C)C(=O)O)c(C)c2)cc1C [compound 39, 1-(4-Hexylthio-3,5-dimethylphenyl)-3-(4-carboxydimethylmethyloxy-3,5-dimethylphenyl)prop-2-en-1-one]	0.95	0.96	1.56	3.06	4.08	4.86	4.78	4.72	1.08	1.17	3.19	7.69	9.68	10.16	10.42	9.96	plasma cholesterol [1]: decrease; plasma triglycerides [1]: decrease; expression of CD1a at the cell surface ([2]; 10^−6 M added at D0, six days with GM-CSF and IL-4): almost totally inhibiting; CD86 expression [2, 3]: slightly increased; expression of the costimulation molecule CD80 [2, 3]: reduced, to a lesser extent; lag phase (LDL; FIG. 8a, absence of compounds 67.3 minutes): 133 min; rate of LDL oxidation (LDL; FIG. 8b, absence of compounds 2.5): 1.2 nmol/min/mg; total amount of dienes formed (LDL; FIG. 8c, absence of compound 432.3): 371.2 nmol/mg
